Test results: patent US20240285571A1, “METHODS OF TREATING BONE INFECTIONS” (MICROBION CORPORATION, priority 2020, published 2024)

Tests used:
Test in all cases: MIC of baseline clinical isolates (Example 8)
Format in all cases: cell-based
[1] = test system: Staphylococcus lugdunensis; details: Staphylococcus lugdunensis baseline isolates (N′ = 3), central laboratory, mITT
Experimental: (§1) Microbiology was assessed on Day 1 and at the time of any subsequent surgical procedure at the index site. Samples were collected from the infected bone site or involved tissue adjacent to any implant(s), swabs of the deep infection site, and the superficial tissue/wound closure/sinus tract site. […] Parallel sets of samples were analyzed by the local clinical site laboratory to guide patient antibiotic treatment.

S. epidermidis = details: Staphylococcus epidermidis baseline isolates (N′ = 5), central laboratory, mITT
Experimental: as §1

Staphylococcus hominis = Staphylococcus hominis baseline isolates (N′ = 1), central laboratory, mITT
Experimental: as §1

Staphylococcus arlettae = Staphylococcus arlettae baseline isolates (N′ = 1), central laboratory, mITT
Experimental: as §1

S. aureus (MRSA, MSSA) = details: Staphylococcus aureus, MRSA baseline isolates (N′ = 4), central laboratory, mITT
Experimental: as §1

Staphylococcus pasteuri = Staphylococcus pasteuri baseline isolates (N′ = 1), central laboratory, mITT
Experimental: as §1

[2] = test system: Staphylococcus haemolyticus; details: Staphylococcus haemolyticus baseline isolates (N′ = 1), central laboratory, mITT
Experimental: as §1

Streptococcus oralis = Streptococcus oralis baseline isolates (N′ = 1), central laboratory, mITT
Experimental: (§2) Microbiology was assessed on Day 1 and at the time of any subsequent surgical procedure at the index site. Samples were collected from the infected bone site or involved tissue adjacent to any implant(s), swabs of the deep infection site, and the superficial tissue/wound closure/sinus tract site. Isolation and identification of aerobic and anerobic bacteria was conducted at a central microbiology laboratory (IHMA, Schaumburg, IL) and susceptibility of the isolates to MBN-101 (BisEDT) and comparator agents was performed per Clinical and Laboratory Standards Institute (CLSI). Parallel sets of samples were analyzed by the local clinical site laboratory to guide patient antibiotic treatment.

[3] = test system: Corynebacterium resistens; details: Corynebacterium resistens baseline isolates (N′ = 1), central laboratory, mITT
Experimental: as §2

Corynebacterium jeikeium = Corynebacterium jeikeium baseline isolates (N′ = 2), central laboratory, mITT
Experimental: as §2

[4] = test system: non-speciated Corynebacterium; details: Corynebacterium non-speciated baseline isolates (N′ = 2), central laboratory, mITT
Experimental: as §2

[5] = test system: Corynebacterium amycolatum; details: Corynebacterium amycolatum baseline isolates (N′ = 1), central laboratory, mITT
Experimental: as §2

Dermabacter hominis = Dermabacter hominis baseline isolates (N′ = 1), central laboratory, mITT
Experimental: as §2

| Mean MIC [1] [µg/mL] | Mean MIC (S. epidermidis) [µg/mL] | Mean MIC (Staphylococcus hominis) [µg/mL] | Mean MIC (Staphylococcus arlettae) [µg/mL] | Mean MIC (Staphylococcus pasteuri) [µg/mL] | Structure (SMILES) | n (% resistant) [1] | n (% resistant) (S. epidermidis) | n (% resistant) (Staphylococcus arlettae) | n (% resistant) (S. aureus (MRSA, MSSA)) | Mean MIC [2] [µg/mL] | n (% resistant) [2] | Mean MIC (Streptococcus oralis) [µg/mL] | n (% resistant) (Streptococcus oralis) | Mean MIC [3] [µg/mL] | n (% resistant) [3] | Mean MIC (Corynebacterium jeikeium) [µg/mL] | n (% resistant) (Corynebacterium jeikeium) | Mean MIC [4] [µg/mL] | Mean MIC [5] [µg/mL] | n (% resistant) [5] | other results |
| --- | --- | --- | --- | --- | --- | --- | --- | --- | --- | --- | --- | --- | --- | --- | --- | --- | --- | --- | --- | --- | --- |
| 7.33 | 2.60 | 4.00 | 0.50 | 0.25 | CC1(C)S[C@@H]2[C@H](NC(=O)[C@H](N)c3ccccc3)C(=O)N2[C@H]1C(=O)O [AMP] | 0 (0.0) n (%) | 0 (0.0) n (%) | 0 (0.0) n (%) | 0 (0.0) n (%) | 16.00 | 0 (0.0) n (%) |  |  |  |  |  |  |  |  |  | n (% resistant) (Staphylococcus hominis): 0 (0.0) n (%); Mean MIC (S. aureus (MRSA, MSSA)): 28.00 µg/mL; n (% resistant) (Staphylococcus pasteuri): 0 (0.0) n (%) |
|  |  |  |  |  | CO/N=C(\C(=O)N[C@@H]1C(=O)N2C(C(=O)O)=C(CSc3nc(=O)c(O)nn3C)CS[C@H]12)c1csc(N)n1 [CRO] |  |  |  |  |  |  | 0.06 | 0 (0.0) n (%) | 4.00 | 1 (100.0) n (%) | 4.00 | 2 (100.0) n (%) | 0.75 | 1.00 | 0 (0.0) n (%) | n (% resistant) [4]: 0 (0.0) n (%); Mean MIC (Dermabacter hominis): 0.50 µg/mL; n (% resistant) (Dermabacter hominis): 0 (0.0) n (%) |
|  |  |  |  |  | CC[C@H]1OC(=O)[C@H](C)[C@@H](O[C@H]2C[C@@](C)(OC)[C@@H](O)[C@H](C)O2)[C@H](C)[C@@H](O[C@@H]2O[C@H](C)C[C@H](N(C)C)[C@H]2O)[C@](C)(O)C[C@@H](C)C(=O)[C@H](C)[C@@H](O)[C@]1(C)O [ERY] |  |  |  |  |  |  | 1.00 | 1 (100.0) n (%) | 0.02 | 0 (0.0) n (%) | 2.25 | 1 (50.0) n (%) | 2.02 | 4.00 | 1 (100.0) n (%) | n (% resistant) [4]: 1 (50.0) n (%); Mean MIC (Dermabacter hominis): 2.00 µg/mL; n (% resistant) (Dermabacter hominis): 1 (100.0) n (%) |
| 0.05 | 0.18 | 0.12 | 0.25 | 0.06 | CN(C)c1ccc(O)c2c1C[C@H]1C[C@H]3[C@H](N(C)C)C(O)=C(C(N)=O)C(=O)[C@@]3(O)C(O)=C1C2=O [MIN] | 0 (0 0) n (%) | 0 (0.0) n (%) | 0 (0.0) n (%) | 0 (0.0) n (%) | 0.12 | 0 (0.0) n (%) |  |  |  |  |  |  |  |  |  | n (% resistant) (Staphylococcus hominis): 0 (0.0) n (%); Mean MIC (S. aureus (MRSA, MSSA)): 0.11 µg/mL; n (% resistant) (Staphylococcus pasteuri): 0 (0.0) n (%) |
| 2.83 | 125 | 4.00 | 2.00 | 0.25 | Cc1onc(-c2ccccc2)c1C(=O)N[C@@H]1C(=O)N2[C@@H]1SC(C)(C)[C@@H]2C(=O)O [OXA] | 2. (66.7) n (%) | 2 (40.0) n (%) | 1 (100.0) n (%) | 4 (100.0) n (%) | 4.00 | 1 (100.0) n (%) |  |  |  |  |  |  |  |  |  | n (% resistant) (Staphylococcus hominis): 1 (100.0) n (%); n (% resistant) (Staphylococcus pasteuri): 0 (0.0) n (%) |
|  |  |  |  |  | CC1(C)S[C@@H]2[C@H](NC(=O)Cc3ccccc3)C(=O)N2[C@H]1C(=O)O [PEN] |  |  |  |  |  |  | 0.06 | 0 (0.0) n (%) | 4.00 | 1 (100.0) n (%) | 4.00 | 2 (100.0) n (%) | 2.06 | 1.00 | 0 (0.0) n (%) | Mean MIC (Dermabacter hominis): 0.50 µg/mL; n (% resistant) (Dermabacter hominis): 0 (0.0) n (%) |

| Structure (SMILES) | Mean MIC [1] [µg/mL] | Mean MIC (S. epidermidis) [µg/mL] | Mean MIC (Staphylococcus hominis) [µg/mL] | Mean MIC (Staphylococcus arlettae) [µg/mL] | Mean MIC (Staphylococcus pasteuri) [µg/mL] | n (% resistant) [1] | n (% resistant) (S. epidermidis) | n (% resistant) (Staphylococcus arlettae) | n (% resistant) (S. aureus (MRSA, MSSA)) | Mean MIC [2] [µg/mL] | n (% resistant) [2] | Mean MIC (Streptococcus oralis) [µg/mL] | n (% resistant) (Streptococcus oralis) | Mean MIC [3] [µg/mL] | n (% resistant) [3] | Mean MIC (Corynebacterium jeikeium) [µg/mL] | n (% resistant) (Corynebacterium jeikeium) | Mean MIC [4] [µg/mL] | Mean MIC [5] [µg/mL] | n (% resistant) [5] | other results |
| --- | --- | --- | --- | --- | --- | --- | --- | --- | --- | --- | --- | --- | --- | --- | --- | --- | --- | --- | --- | --- | --- |
| CC1(C)S[C@@H]2[C@H](NC(=O)[C@H](N)c3ccc(O)cc3)C(=O)N2[C@H]1C(=O)O.O=C(O)[C@H]1/C(=C/CO)O[C@@H]2CC(=O)N21 [AMC] | 3.67 | 1.05 | 2.00 | 0.25 | 0.12 | 0 (0.0) n (%) | 0 (0.0) n (%) | 0 (0.0) n (%) | 0 (0.0) n (%) | 2.00 | 0 (0.0) n (%) | 0.06 | 0 (0.0) n (%) | 8.00 | 0 (0.0) n (%) | 3.00 | 0 (0.0) n (%) | 4.03 | 1.00 | 0 (0.0) n (%) | n (% resistant) (Staphylococcus hominis): 0 (0.0) n (%); Mean MIC (S. aureus (MRSA, MSSA)): 8.00 µg/mL; n (% resistant) (Staphylococcus pasteuri): 0 (0.0) n (%); n (% resistant) [4]: 0 (0.0) n (%); Mean MIC (Dermabacter hominis): 0.50 µg/mL; n (% resistant) (Dermabacter hominis): 0 (0.0) n (%) |
| COc1cc(Cc2cnc(N)nc2N)cc(OC)c1OC.Cc1cc(NS(=O)(=O)c2ccc(N)cc2)no1 [SXT] | 0.16 | 4.42 | 8.00 | 8.00 | 0.12 | 0 (0.0) n (%) | 3 (60.0) n (%) | 1 (100.0) n (%) | 1 (25.0) n (%) | 0.25 | 10.0 n (%) | 0.12 | 0 (0.0) n (%) | 2.00 | 0 (0.0) n (%) | 2.00 | 0 (0.0) n (%) | 2.25 | 0.25 | 0 (0.0) n (%) | Mean MIC (S. aureus (MRSA, MSSA)): 2.09 µg/mL; Mean MIC (Dermabacter hominis): 4.00 µg/mL |
